The record followed here is patent publication US4859693A, “Antiinflammatory carbinoloimidazoles” (E. I. Du Pont de Nemours and Company, priority 1988, dated 1989).

The subject of this test is inflammation induced by tetradecanoyl phorbol acetate (TPA). Put plainly: TPA model: inflammation (ear edema) induced by tetradecanoyl phorbol acetate in mice. The test is classed as in vivo. The note with it: 100 μg/ear topical, mouse ear, TPA stimulus, edema measured four hours later. The source says: One such model is the inflammation induced by tetradecanoyl phorbol acetate (TPA). The test methods are modified from those of Marks et al. (Cancer Res, 36, p. 2636, 1976). The TPA model is a murine model which mimics many of the inflammatory changes which occur in human disease such as psoriasis. In this model, elevated levels of inflammatory arachidonic acid metabolites are found, and an influx or polymorphonuclear leukocytes (PMN) is observed. The procedure used to evaluate the compounds of this invention is as follows: the test compound (100 μg/ear) is applied to the ears of mice in an appropriate vehicle, such as acetone, and then the inflammatory stimulus is applied to the right ear. Four hours later, the edema is measured by removing standard sized discs from the mouse ears using a biopsy punch. The masses of the discs are then determined.

SMILES strings stand for the structures.

For `CCC(n1ccnc1)C(O)(c1ccc(F)cc1)c1ccc(F)cc1` (racemic) [Example 3a, 1,1-bis(4-fluorophenyl)-2-(1-imidazolyl)butanol], the “% Inhibition of Control Inflammation” value is 40%.
For the compound `OC(CCCn1ccnc1)(c1ccc(F)cc1)c1ccc(F)cc1` [Example 1a, 1,1-bis(4-fluorophenyl)-4-(1-imidazolyl)butanol], the “% Inhibition of Control Inflammation” value is listed as 31%.
As to `OC(Cn1ccnc1)(c1ccc(F)cc1)c1ccc(Br)cc1` (centres unmarked) [Example 2b, 1-(4-fluorophenyl)-1-(4-bromophenyl)-2-(1-imidazolyl)-ethanol], the “% Inhibition of Control Inflammation” value was determined as 41%.
The result for `CC(n1ccnc1)C(O)(c1ccc(F)cc1)c1ccc(F)cc1` (centres unmarked) [Example 3b] reads 40%; that for `CCCC(n1ccnc1)C(O)(c1ccc(F)cc1)c1ccc(F)cc1` (centres unmarked) [Example 3c], 30%; that for `CC(n1ccnc1)C(O)(c1ccc(Cl)cc1)c1ccc(Cl)cc1` (centres unmarked) [Example 3e], 55%.
In the case of `Cc1ccc(C(O)(c2ccc(C)cc2)[C@H](C)n2ccnc2)cc1` [Example 4a, (S)-1,1-bis(4-methylphenyl)-2-(1-imidazolyl)propanol], the “% Inhibition of Control Inflammation” value is on record as 33%.
For `C[C@@H](n1ccnc1)C(O)(c1ccc(Cl)cc1)c1ccc(Cl)cc1` [Example 5a, (R)-1,1-bis(4-chlorophenyl)-2-(1-imidazolyl)propanol] the value was 61%.
